The results in this text go back to patent publication US5210027A, “DNA encoding novel antimicrobial polypeptide and methods for obtaining such polypeptide” (INCYTE Pharmaceuticals, Inc., priority 1991, dated 1993).

Holding throughout (assay type): cell-based
Assay [1] has as its system Escherichia coli K12 (MC4100). As to the kind of experiment: Microbicidal assay (colony forming units) against Escherichia coli. The method, then: (§1) Microbicidal activity was routinely tested against Escherichia coli K12 (MC4100), Streptococcus faecalis (ATCC Accession No. 29212) and Candida albicans (clinical isolate). Organisms from a single colony on agar plates were inoculated into liquid medium and cultured overnight at 37° C. Aliquots of the overnight culture were inoculated into fresh nutrient broth and grown to mid-exponential phase. Cultures were then diluted into the test medium to the appropriate concentration.
(§2) Samples from reverse-phase liquid chromatography to be tested for microbicidal activity were dried by vacuum centrifugation in Immulon I microtire plates in the presence of 50 μl 0.1% BSA. Dried samples were resuspended in 0.1% acetic acid and returned to dryness by vacuum centrifugation. Samples were then resuspended in assay buffer and after appropriate dilutions of samples had been made, test organisms were added to the wells and incubation at 37° C. was carried out for 30 to 60 minutes. Killing of all organisms was carried out in 20 mM phosphate pH 6, 0.25M glucose and 0.02% Tween 20 unless otherwise indicated. A volume of the assay mixture corresponding to 200-300 organisms in the control assays were plated onto trypticase soy agar plates (Escherichia coli and Streptococcus faecalis) or spread onto Sabouraud dextrose agar plates (Candida albicans). Colony forming units were determined manually or by automated counting after overnight incubation at 37° C.

Assay [2] has as its system Streptococcus faecalis (ATCC Accession No. 29212). As to the kind of experiment: Microbicidal assay (colony forming units) against Streptococcus faecalis. The method, then: as §1, §2
Assay [3] relates to Candida albicans (clinical isolate). The experiment in a line: Microbicidal assay (colony forming units) against Candida albicans. The following applies: in vitro. The protocol: as §1
as §2, with “A volume of the assay mixture corresponding to 200-300 organisms in the control assays were plated onto trypticase soy agar plates (Escherichia coli and Streptococcus faecalis) or spread onto Sabouraud dextrose agar plates (Candida albicans).” left out

[4] abbreviates: in vitro, 20 mM phosphate pH 6, 0.25M glucose, 0.02% Tween 20, 37° C., 30 to 60 minutes, relative to Peak 1 (defensins).

Take “val-cys-ser-cys-arg-leu-val-phe-cys-arg-arg-thr-glu-leu-arg-val-gly-asn-cys-leu-ile-gly-gly-val-ser-phe-thr-tyr-cys-cys-thr-arg-val [Peak 2]”: the “effect of detergents Tween 20 and NP40 on microbicidal activity” value was “enhanced” in assay [1] (against bacteria, FIG. 7) and “enhanced” in assay [2] (against bacteria, FIG. 7). In addition, the “microbicidal activity compared with a mixture of previously described defensins” value in assay [1] (in vitro), in assay [2] (in vitro) and in assay [3] was “significantly more active” in each case. Also, the “microbicidal activity, fold more active than Peak 1” value is 15-30 fold in assay [1] (setting [4]) and “about 5 fold” in assay [3] (20 mM phosphate pH 6, 0.25M glucose, 0.02% Tween 20, 37° C., 30 to 60 minutes, relative to Peak 1 (defensins)). Further, the “concentration required to reach the indicated levels of killing (50% or 90%), fold less than for Peak 1” value in assay [2] (setting [4]) was “about 100 fold”.
